Tests used:
Assay type in all cases: biochemical
[1] = molecular target: PI3Kα (p110α/p85α) (Homo sapiens (Human), UniProt P42336); assay: cell-free PI3K HTRF assay, PI3Kα; details: ratio of IC50 against PI3Kα related to PI3Kδ; 10-dose, 3-fold serial dilution starting at 10 μM
Description: (§1) Exemplary compounds of the invention were tested for inhibitory activity and potency against class I PI3Ks (p110α/p85α, p110β/p85α, p110δ/p85α and p110γ) using a cell-free based PI3K HTRF assay. This assay was used to detect the formation of the product 3,4,5-inositol triphosphate molecule (PIP3) by displacement of biotin-PIP3 from an energy transfer complex consisting of Europium labeled anti-GST monoclonal antibody, a GST-tagged pleckstrin homology (PH) domain, biotinylated PIP3 and Streptavidin-Allophycocyanin (APC). Excitation of Europium in the complex results in an energy transfer to the APC and a fluorescent emission at 665 nm. The PIP3 product formed by human PI 3-Kinase activity displaces biotin-PIP3 from the complex resulting in a loss of energy transfer and thus a decrease in signal.
(§2) Human class I PI3K isoforms were co-expressed in a Baculovirus infected cell expression system. The PI3K isoforms were assayed in the presence of HEPES (50 mM, pH 7.0), NaN3 (0.02%), BSA (0.01%), orthovanadate (0.1 mM), and DMSO (1%). The exemplary compounds dissolved in DMSO were delivered into the kinase reaction mixture by Acoustic technology (Echo550; nanolitter range), and were pre-incubated for 10 min at room temperature before adding ATP (10 μM) to initiate the reaction. After 30 min at 30° C., the reactions were quenched with a stop solution, incubated overnight with a detection mixture before measuring HTRF (Ex: 320 nm; Em: 615/665 nm). The emission ratio is converted into μM PIP3 production based on PIP3 standard curves, and the nonlinear regression to obtain the standard curve and IC50 values are performed using Graphpad Prism software.
(§3) The assays were performed at Reaction Biology Corporation, One Great Valley Parkway, Suite 2, Malvern, Pa. 19355, USA.
(§4) Exemplary compounds of the invention selected were further tested their inhibitory activity or potency against PI3Kα, PI3Kβ, and PI3Kγ in 10-dose IC50 mode with 3-fold serial dilution starting at 10 μM. […] Table 5 below illustrates the selectivity of the exemplary compounds using the ratios of the IC50 values of the compounds against PI3Kα, PI3Kβ, and PI3Kγ related to PI3Kδ. […] Such unexpected selectivity against PI3Kδ and/or PI3Kγ is attributed to the unusual overall shape of the molecules of formula (I) and (II), and the optimal selection of R1, R2, R3, R4, X, and Y defined in formula (I) and (II) in order to bind favorably in the ATP-binding pocket of PI3Kδ and/or PI3Kγ versus other class I isozymes.

[2] = molecular target: PI3Kδ (p110δ/p85α) (Homo sapiens (Human), UniProt O00329); assay: cell-free PI3K HTRF assay, PI3Kδ; details: 10-dose IC50 mode, 3-fold serial dilution starting at 1 μM; ATP 10 μM; read-out: IC50 value for the inhibition of PI3Kδ
Chain of PI3Kδ (p110δ/p85α) (O00329 whole entry): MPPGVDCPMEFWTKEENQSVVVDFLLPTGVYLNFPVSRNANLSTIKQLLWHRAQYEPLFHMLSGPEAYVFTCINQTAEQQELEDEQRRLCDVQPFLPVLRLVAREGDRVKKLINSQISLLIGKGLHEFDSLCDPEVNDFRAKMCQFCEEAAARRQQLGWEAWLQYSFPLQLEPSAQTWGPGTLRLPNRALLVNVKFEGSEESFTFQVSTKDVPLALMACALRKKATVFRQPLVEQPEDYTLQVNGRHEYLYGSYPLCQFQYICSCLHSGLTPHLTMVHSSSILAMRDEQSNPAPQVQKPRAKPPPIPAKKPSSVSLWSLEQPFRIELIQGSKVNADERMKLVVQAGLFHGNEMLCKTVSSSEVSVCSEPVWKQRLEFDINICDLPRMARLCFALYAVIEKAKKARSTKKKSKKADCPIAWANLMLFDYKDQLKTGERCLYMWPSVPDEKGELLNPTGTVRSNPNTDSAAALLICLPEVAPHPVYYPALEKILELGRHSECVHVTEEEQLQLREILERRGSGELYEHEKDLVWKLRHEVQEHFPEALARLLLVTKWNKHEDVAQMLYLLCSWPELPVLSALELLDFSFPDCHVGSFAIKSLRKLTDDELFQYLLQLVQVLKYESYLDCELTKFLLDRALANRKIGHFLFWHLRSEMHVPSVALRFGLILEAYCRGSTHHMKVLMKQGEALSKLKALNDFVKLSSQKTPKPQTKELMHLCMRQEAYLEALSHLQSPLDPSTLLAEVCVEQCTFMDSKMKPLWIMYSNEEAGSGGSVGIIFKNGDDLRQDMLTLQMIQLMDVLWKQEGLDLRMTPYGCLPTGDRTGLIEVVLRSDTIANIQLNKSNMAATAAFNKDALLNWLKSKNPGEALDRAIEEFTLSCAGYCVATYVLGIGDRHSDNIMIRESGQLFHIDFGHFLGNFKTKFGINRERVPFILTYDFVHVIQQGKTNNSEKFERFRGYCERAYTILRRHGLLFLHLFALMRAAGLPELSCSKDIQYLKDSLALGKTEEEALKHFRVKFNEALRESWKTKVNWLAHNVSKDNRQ
Chain of PI3Kδ (p110δ/p85α) (P27986 whole entry partner): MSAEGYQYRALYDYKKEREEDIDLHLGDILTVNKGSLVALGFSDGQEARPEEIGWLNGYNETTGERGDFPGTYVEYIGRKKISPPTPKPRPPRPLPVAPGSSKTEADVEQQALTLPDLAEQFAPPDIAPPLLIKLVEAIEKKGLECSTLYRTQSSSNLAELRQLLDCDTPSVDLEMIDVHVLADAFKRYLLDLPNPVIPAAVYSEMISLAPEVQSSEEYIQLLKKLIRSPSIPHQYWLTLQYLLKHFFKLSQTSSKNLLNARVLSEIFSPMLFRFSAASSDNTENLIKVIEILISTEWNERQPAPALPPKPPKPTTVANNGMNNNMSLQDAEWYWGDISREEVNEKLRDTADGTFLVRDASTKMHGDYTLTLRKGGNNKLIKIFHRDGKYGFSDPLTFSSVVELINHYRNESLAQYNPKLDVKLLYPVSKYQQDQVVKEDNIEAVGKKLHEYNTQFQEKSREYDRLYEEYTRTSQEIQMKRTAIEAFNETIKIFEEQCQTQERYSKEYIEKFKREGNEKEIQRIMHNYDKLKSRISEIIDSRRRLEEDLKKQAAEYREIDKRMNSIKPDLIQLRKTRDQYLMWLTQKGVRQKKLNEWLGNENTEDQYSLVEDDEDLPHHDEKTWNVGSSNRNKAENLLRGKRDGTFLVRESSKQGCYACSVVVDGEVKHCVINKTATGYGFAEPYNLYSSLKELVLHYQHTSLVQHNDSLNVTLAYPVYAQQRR

[3] = molecular target: PI3Kβ (p110β/p85α) (Homo sapiens (Human), UniProt P42338); assay: cell-free PI3K HTRF assay, PI3Kβ; details: ratio of IC50 against PI3Kβ related to PI3Kδ; 10-dose, 3-fold serial dilution starting at 10 μM
Chain of PI3Kβ (p110β/p85α) (P42338 whole entry): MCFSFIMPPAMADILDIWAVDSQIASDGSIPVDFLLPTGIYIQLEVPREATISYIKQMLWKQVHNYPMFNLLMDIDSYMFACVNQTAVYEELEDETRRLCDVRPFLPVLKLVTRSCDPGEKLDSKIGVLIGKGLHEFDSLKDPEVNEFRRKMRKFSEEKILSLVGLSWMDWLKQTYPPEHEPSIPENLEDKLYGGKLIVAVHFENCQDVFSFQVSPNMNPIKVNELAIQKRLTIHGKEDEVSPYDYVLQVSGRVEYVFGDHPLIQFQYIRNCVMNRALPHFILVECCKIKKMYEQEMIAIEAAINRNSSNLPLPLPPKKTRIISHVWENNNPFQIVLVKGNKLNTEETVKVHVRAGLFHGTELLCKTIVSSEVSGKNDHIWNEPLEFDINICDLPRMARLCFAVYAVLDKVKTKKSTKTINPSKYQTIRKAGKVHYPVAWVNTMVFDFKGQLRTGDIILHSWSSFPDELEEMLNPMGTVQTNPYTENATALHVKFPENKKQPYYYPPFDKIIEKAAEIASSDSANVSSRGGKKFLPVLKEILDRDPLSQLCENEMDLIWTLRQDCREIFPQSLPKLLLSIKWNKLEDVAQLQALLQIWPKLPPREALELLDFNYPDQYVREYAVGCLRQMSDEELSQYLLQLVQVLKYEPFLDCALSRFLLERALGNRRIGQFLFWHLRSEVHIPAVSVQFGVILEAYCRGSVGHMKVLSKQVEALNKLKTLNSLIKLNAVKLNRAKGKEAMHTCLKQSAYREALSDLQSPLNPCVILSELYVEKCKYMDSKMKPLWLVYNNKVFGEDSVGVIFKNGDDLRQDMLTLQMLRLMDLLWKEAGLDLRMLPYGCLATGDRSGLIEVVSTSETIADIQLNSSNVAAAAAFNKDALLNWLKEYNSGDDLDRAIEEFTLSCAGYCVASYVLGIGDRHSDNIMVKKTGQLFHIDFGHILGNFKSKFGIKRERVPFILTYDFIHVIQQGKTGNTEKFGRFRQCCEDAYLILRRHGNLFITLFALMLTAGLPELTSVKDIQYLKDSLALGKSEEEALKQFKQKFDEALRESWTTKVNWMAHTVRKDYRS
Chain of PI3Kβ (p110β/p85α) (P27986 whole entry partner): as the sequence (P27986 whole entry partner) above
Description: as §1, §2, §3, §4

[4] = molecular target: PI3Kγ (p110γ) (Homo sapiens (Human), UniProt P48736); assay: cell-free PI3K HTRF assay, PI3Kγ; details: ratio of IC50 against PI3Kγ related to PI3Kδ; 10-dose, 3-fold serial dilution starting at 10 μM
Chain of PI3Kγ (p110γ) (P48736 whole entry): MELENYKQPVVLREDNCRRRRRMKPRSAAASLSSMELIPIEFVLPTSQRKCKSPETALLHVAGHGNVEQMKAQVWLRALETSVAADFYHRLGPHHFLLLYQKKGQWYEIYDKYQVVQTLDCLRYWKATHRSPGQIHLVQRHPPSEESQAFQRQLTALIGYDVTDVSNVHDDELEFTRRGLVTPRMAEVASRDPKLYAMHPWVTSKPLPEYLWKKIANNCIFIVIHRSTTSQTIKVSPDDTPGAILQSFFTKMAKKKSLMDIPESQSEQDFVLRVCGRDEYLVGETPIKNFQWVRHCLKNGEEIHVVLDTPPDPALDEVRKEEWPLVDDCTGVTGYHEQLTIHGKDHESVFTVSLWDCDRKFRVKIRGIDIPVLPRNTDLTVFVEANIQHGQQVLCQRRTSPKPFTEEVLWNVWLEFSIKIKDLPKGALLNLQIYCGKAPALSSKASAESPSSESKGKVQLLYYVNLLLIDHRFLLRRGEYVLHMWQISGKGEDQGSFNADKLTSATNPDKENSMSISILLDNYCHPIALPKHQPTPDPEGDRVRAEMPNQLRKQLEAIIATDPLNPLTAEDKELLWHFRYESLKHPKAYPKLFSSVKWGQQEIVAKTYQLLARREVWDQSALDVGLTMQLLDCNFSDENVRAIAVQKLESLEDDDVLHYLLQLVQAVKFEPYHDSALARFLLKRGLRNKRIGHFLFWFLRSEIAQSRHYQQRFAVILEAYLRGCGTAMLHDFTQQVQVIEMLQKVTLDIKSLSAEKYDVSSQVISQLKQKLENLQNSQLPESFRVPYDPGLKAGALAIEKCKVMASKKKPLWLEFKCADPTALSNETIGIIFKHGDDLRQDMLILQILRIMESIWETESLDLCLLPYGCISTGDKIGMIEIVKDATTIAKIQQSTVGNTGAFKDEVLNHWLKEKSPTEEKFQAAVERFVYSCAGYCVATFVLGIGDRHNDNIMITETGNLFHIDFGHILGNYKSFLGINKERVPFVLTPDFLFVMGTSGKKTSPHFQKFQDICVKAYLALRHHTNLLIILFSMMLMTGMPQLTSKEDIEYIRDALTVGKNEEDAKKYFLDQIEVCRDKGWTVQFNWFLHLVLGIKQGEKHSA
Description: as §1, §2, §3, §4

Chain of PI3Kα (p110α/p85α) (P42336 whole entry): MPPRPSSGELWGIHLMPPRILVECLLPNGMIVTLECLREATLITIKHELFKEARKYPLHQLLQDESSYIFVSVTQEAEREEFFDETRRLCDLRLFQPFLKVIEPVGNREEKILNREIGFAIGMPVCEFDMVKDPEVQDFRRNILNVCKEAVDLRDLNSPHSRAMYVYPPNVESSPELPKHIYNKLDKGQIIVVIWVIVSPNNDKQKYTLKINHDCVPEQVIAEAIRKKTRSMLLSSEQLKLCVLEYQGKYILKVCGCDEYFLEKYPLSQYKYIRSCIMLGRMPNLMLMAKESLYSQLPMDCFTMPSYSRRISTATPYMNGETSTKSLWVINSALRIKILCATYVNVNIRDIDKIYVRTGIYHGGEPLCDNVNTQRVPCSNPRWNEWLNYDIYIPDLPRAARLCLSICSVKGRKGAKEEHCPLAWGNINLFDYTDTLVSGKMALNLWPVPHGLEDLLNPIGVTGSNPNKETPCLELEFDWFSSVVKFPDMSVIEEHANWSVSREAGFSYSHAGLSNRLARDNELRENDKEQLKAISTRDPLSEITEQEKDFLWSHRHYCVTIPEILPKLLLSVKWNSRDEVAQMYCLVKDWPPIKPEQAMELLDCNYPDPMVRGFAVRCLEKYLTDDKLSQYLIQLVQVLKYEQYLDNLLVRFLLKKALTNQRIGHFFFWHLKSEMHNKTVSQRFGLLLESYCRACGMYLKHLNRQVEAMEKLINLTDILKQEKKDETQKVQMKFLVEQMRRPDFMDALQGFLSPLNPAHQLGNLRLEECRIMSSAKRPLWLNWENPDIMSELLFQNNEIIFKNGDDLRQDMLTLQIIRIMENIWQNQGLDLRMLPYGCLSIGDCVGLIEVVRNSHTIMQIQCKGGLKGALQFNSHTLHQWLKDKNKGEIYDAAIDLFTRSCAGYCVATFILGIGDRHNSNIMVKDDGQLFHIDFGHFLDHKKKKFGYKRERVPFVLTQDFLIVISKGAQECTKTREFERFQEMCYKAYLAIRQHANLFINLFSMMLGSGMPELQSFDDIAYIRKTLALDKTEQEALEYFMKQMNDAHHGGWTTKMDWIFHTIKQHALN
Chain of PI3Kα (p110α/p85α) (P27986 whole entry partner): as the sequence (P27986 whole entry partner) above

In the case of `Fc1ccc2cc(C3CCCCN3c3ncnc4[nH]cnc34)c(N3CCOCC3)nc2c1` (stereo not shown) [Compound 38, 4-(3-(1-(9H-purin-6-yl)piperidin-2-yl)-7-fluoroquinolin-2-yl)morpholine], the “Ratio (α/δ)” value [1] is reported as 529, the IC50 [2] is reported as 7.1 nM and the “Ratio (β/δ)” value [3] is reported as 537. The “Ratio (γ/δ)” value [4] was 106.
